Assay results published in patent US11091494B2, “Crystal form of acalabrutinib and preparation method and use thereof” (Crystal Pharmaceutical (Suzhou) Co., Ltd., priority 2018, dated 2021).

Tests used:
[1] = Compressibility (tensile strength of compressed tablet); assay type: physicochemical; settings: about 80 mg, φ6 mm round tooling, compressed at 10 kN
Experimental: (§1) Approximately 80 mg of Form A and Form I in WO2017002095A1 were weighed into the dies of a φ6 mm round tooling, compressed at 10 kN manually, then stored in a desiccator for 24 hours until complete elastic recovery. Radial crushing force (hardness, H) was tested with an intelligent tablet hardness tester. Diameter (D) and thickness (L) were tested with a caliper. Tensile strength of the powder that with different hardness was calculated with the following formula: T=2H/πDL. Under a certain force, the greater the tensile strength, the better the compressibility.
as §1, with “Form D” for “Form A”, “manually, and” for “manually,”, “powder” for “powder that”
as §1, with “of Form F and Form” for “of Form A and Form”, “kN manually, and then stored” for “kN manually, then stored”, “tested with caliper. Tensile” for “tested with a caliper. Tensile”, “the powder with different” for “the powder that with different”
Approximately 80 mg of Form G and Form I of WO2017002095A1 were weighed into the dies of a φ6 mm round tooling, compressed at 10 kN manually, and then stored in a desiccator for 24 hours until complete elastic recovery. Radial crushing force (hardness, H)) was tested with an intelligent tablet hardness tester. Diameter (D) and thickness (L) were tested with caliper. Tensile strength of the powder with different hardness was calculated with the following formula: T=2H/πDL. Under a certain force, the greater the tensile strength, the better the compressibility.
as §1, with “of Form CS15 and Form” for “of Form A and Form”, “kN manually, and then stored” for “kN manually, then stored”, “tested with caliper. Tensile” for “tested with a caliper. Tensile”, “the powder with different” for “the powder that with different”

[2] = Intrinsic dissolution rate in pH 2.5 HCl/NaCl aqueous solution; assay type: physicochemical; settings: for Cumulative dissolution / IDR (intrinsic dissolution rate): pH 2.5 HCl/NaCl, 37° C.; for Cumulative dissolution: 0.5 cm^2 pellet; for IDR (intrinsic dissolution rate): slope over 0-45 minutes
Experimental: (§2) Approximately 200 mg of Form A and Form I in WO2017002095A1 were added into the die, compressed at 10 kN and held for 1 minute to obtain a pellet having a surface area of 0.5 cm^2. The whole tool with the pellet was transferred to a dissolution apparatus to test the intrinsic dissolution rate. The slope (mg/min) was calculated according to the data within 0-45 minutes. Intrinsic dissolution rate (IDR, mg/min/cm^2) was further calculated according to the slope.
as §2, with “Form D” for “Form A”
as §2, with “Form F” for “Form A”, “intrinsic dissolution.” for “intrinsic dissolution rate.”
as §2, with “Form G” for “Form A”, “intrinsic dissolution.” for “intrinsic dissolution rate.”
as §2, with “Form CS15” for “Form A”, “intrinsic dissolution.” for “intrinsic dissolution rate.”

[3] = Adhesiveness (amount of material sticking to the punch); assay type: physicochemical; settings: about 30 mg, φ8 mm round tooling, 10 kN, compression repeated twice
Experimental: (§3) Approximately 30 mg of Form A and Form I in WO2017002095A1 were weighed, added into the dies of a φ8 mm round tooling, compressed at 10 kN and held for about 30 s. The amount of material sticking to the punch was weighed. The compression was repeated twice and the cumulative amount and average amount of material sticking to the punch during the compression were recorded.
as §3, with “Form F” for “Form A”
as §3, with “Form G” for “Form A”

[4] = cited from earlier work; for Highest water content: water content varies in different conditions
[5] = Stability of crystalline form on storage, checked by XRPD; assay type: physicochemical; settings: for Solid form: 2 months, XRPD
Experimental: Approximately 10 mg of Form A of the present disclosure was weighed and stored at different conditions of 25° C./60% RH in open dish, 25° C./60% RH in closed dish, 40° C./75% RH in open dish, and 40° C./75% RH in closed dish. Crystalline forms were checked by XRPD.
Approximately 10 mg of Form D of the present disclosure was weighed and stored at different conditions of 25° C./60% RH in closed dish, 25° C./60% RH in open dish, 40° C./75% RH in closed dish. Crystalline form was checked by XRPD.
Approximately 10 mg of Form F of the present disclosure was weighed and stored at different conditions of 25° C./60% RH in closed dish, 25° C./60% RH in open dish, and 40° C./75% RH in closed dish, 40° C./75% RH in open dish. Crystalline forms were checked by XRPD.
Approximately 10 mg of Form G of the present disclosure was weighed and stored at 25° C./60% RH in closed dish. Crystalline forms were checked by XRPD.
Approximately 10 mg of Form CS15 of the present disclosure was weighed and stored at different conditions of 25° C./60% RH in open dish, 25° C./60% RH in closed dish. Crystalline forms were checked by XRPD.

Tensile strength [1]	Cumulative dissolution ([2]; 0 min) [mg]	Cumulative dissolution ([2]; 5 min) [mg]	Cumulative dissolution ([2]; 10 min) [mg]	Cumulative dissolution ([2]; 15 min) [mg]	Cumulative dissolution ([2]; 20 min) [mg]	Cumulative dissolution ([2]; 25 min) [mg]	Cumulative dissolution ([2]; 30 min) [mg]	Cumulative dissolution ([2]; 35 min) [mg]	Cumulative dissolution ([2]; 45 min) [mg]	IDR (intrinsic dissolution rate) [2] [mg/min/cm^2]	Structure (SMILES)	Highest water content [4] [%]	Stability of the crystalline form ([4]; as disclosed in WO2017002095A1)	other results
Unable to be compressed	0.00	0.92	1.64	2.81	3.66	4.62	5.58	6.40	8.16	0.3656	CC#CC(=O)N1CCC[C@H]1c1nc(-c2ccc(C(=O)Nc3ccccn3)cc2)c2c(N)nccn12 [Form I in WO2017002095A1, (S)-4-(8-amino-3-(1-(but-2-ynoyl)pyrrolidin-2-yl)imidazo[1,5-a]pyrazin-1-yl)-N-(pyridin-2-yl)benzamide, reference compound]			Average amount (material sticking to the punch) [3]: 45 µg; Cumulative amount (material sticking to the punch) [3]: 90 µg
											CC#CC(=O)N1CCC[C@H]1c1nc(-c2ccc(C(=O)Nc3ccccn3)cc2)c2c(N)nccn12 [Crystalline form II, (S)-4-(8-amino-3-(1-(but-2-ynoyl)pyrrolidin-2-yl)imidazo[1,5-a]pyrazin-1-yl)-N-(pyridin-2-yl)benzamide]	10		Flowability ([4]; as disclosed in WO2017002095A1): poor
											CC#CC(=O)N1CCC[C@H]1c1nc(-c2ccc(C(=O)Nc3ccccn3)cc2)c2c(N)nccn12 [Crystalline form III, (S)-4-(8-amino-3-(1-(but-2-ynoyl)pyrrolidin-2-yl)imidazo[1,5-a]pyrazin-1-yl)-N-(pyridin-2-yl)benzamide]	8	unstable	
											CC#CC(=O)N1CCC[C@H]1c1nc(-c2ccc(C(=O)Nc3ccccn3)cc2)c2c(N)nccn12 [Crystalline form IV, (S)-4-(8-amino-3-(1-(but-2-ynoyl)pyrrolidin-2-yl)imidazo[1,5-a]pyrazin-1-yl)-N-(pyridin-2-yl)benzamide]		unstable	
0.83 MPa	0.00	0.70	1.73	2.82	3.57	4.77	6.26	7.36	9.72	0.4112	CC#CC(=O)N1CCC[C@H]1c1nc(-c2ccc(C(=O)Nc3ccccn3)cc2)c2c(N)nccn12 [Form D, (S)-4-(8-amino-3-(1-(but-2-ynoyl)pyrrolidin-2-yl)imidazo[1,5-a]pyrazin-1-yl)-N-(pyridin-2-yl)benzamide]			Time kept stable (crystalline state doesn't change) ([5]; 25° C./60% RH in closed dish): at least 2 months; Solid form ([5]; 25° C./60% RH in closed dish): Form D; Chemical purity on storage ([5]; 25° C./60% RH in open and closed dishes, at least 2 months): remains substantially unchanged; Time kept stable (crystalline state doesn't change) ([5]; 25° C./60% RH in open dish): at least 2 months; Solid form ([5]; 25° C./60% RH in open dish): Form D; Time kept stable (crystalline state doesn't change) ([5]; 40° C./75% RH in closed dish): at least 2 months; Solid form ([5]; 40° C./75% RH in closed dish): Form D; IDR relative to that of Form I in WO2017002095A1 ([2]; pH 2.5 HCl/NaCl solution): 1.1 times
